From US9290777B2, “Putative cytokinin receptor and methods for use thereof” (NATIONAL UNIVERSITY OF SINGAPORE, priority 2007, dated 2016)
Entries after “also recorded” stand apart in the source; their conditions may differ.

What was measured:
[1] = tested on: tobacco genome in suspension cultures; settings: relative to untreated material; cited from earlier work
purified TAP-HOG1 [2] = molecular target: T1, purified TAP-HOG1 (Arabidopsis thaliana, UniProt O23255); test: biochemical; format: binding
T1 construct: Protein A (ProtA part of the TAP tag, TEV site between ProtA and CBP) (N, cleaved yes); made in house; host or cells: transgenic Arabidopsis thaliana harbouring 35S:TAP-HOG1
Procedure: (§1) Cytokinin binding affinity and thermodynamic analysis of the interaction between HOG1 and cytokinins was examined by ITC (MCSITC, Microcal, Northampton, USA). Three naturally occurring cytokinins (zeatin, benzyladenine and isopentenyl adenine) and thidiazuron (an urea-derived synthetic cytokinin) were used. Additionally, adenosine and NAD were used as control molecules to verify the binding specificity of HOG1 to cytokinins. Data were analyzed by MICROCAL ORIGIN version 2.9 using the best-fit, nonlinear least-squares method for one binding site. The binding stoichiometry (n), and association constant (KA) were calculated from the fitted curves. Subsequently, KD was calculated as 1/KA. Raw heat data were corrected to baseline drift obtained from injections of 0.1 μM purified AHP1 into the sample cell containing 2 μM purified TAP-HOG1. Binding isotherms were created by plotting the heat peak areas against the molar ratio of AHP1 added to HOG1.
Cytokinin binding affinity and thermodynamic analysis of the interaction between HOG1 and cytokinins was examined by ITC (MCSITC, Microcal, Northampton, USA). TAP-HOG1 fusion protein was purified using published protocols (Forler et al. supra) from transgenic Arabidopsis plants harboring the 35S:TAP-HOG1 construct. 0.01 μM benzyladenine (a naturally occurring cytokinin) and 0.1 μM of purified TAP-HOG1 protein were used for each ITC assay with 25 injections (each injection of 2 μl at […] intervals at 37° C.). Data were analyzed with MICROCAL ORIGIN version 2.9 using the best-fit, nonlinear least-squares method for one binding site. The binding stoichiometry (n), and association constant (KA) were calculated from the fitted curves. Subsequently, KD was calculated as 1/KA.

[3] = tested on: HOG1 anti-sense suppression (AS) line 12 plants; test: Exogenous cytokinin spray on HOG1 anti-sense suppression line, phenotype; format: in vivo, Arabidopsis thaliana; settings: 0.01 μM spray on alternate days over four weeks
Procedure: Three individual seedlings of OE line 6 and AS line 12 were sprayed on alternate days with zeatin or kinetin (0.01 μM), over a period of four weeks. Two WT plants were similarly treated for comparison. […] E) The control OE lines bolt at 4 leaf stage. B) and D) Three individuals of OE line 6 sprayed with zeatin and kinetin respectively, show bolting only after they have reached the 6-7 leaf stage. […] (Note that panels A, B, E and F are in the main FIG. 2 as panels G, H, I and J, and these are included here for ease of comparison only).

purified TAP-HOG1 [4] = molecular target: T2, purified TAP-HOG1 (Arabidopsis thaliana, UniProt O23255); test: TAP-HOG1 and AHP1 interaction by ITC; format: binding; settings: recombinant AHP1 injected into purified TAP-HOG1, read-out: KD (dissociation constant)
T2 construct: Protein A (ProtA part of the TAP tag, TEV site between ProtA and CBP) (N, cleaved yes); made in house; host or cells: TAP-HOG1: transgenic Arabidopsis thaliana (35S:TAP-HOG1); AHP1: E. coli BL21 (PET32EK/LIC)
T2 sequence (O23255 whole entry, looked up): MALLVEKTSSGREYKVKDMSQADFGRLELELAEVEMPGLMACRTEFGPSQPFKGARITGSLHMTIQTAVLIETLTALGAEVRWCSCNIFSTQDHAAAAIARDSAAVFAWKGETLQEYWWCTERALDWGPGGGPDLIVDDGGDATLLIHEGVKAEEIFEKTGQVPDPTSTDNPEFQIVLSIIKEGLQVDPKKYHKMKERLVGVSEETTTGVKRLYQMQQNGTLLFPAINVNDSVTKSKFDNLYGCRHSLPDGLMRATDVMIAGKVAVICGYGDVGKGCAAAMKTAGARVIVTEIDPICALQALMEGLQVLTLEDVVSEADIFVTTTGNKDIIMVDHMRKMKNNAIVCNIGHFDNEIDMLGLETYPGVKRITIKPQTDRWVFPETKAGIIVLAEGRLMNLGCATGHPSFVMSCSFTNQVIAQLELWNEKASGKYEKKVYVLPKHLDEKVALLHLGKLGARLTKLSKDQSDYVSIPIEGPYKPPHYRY
Procedure: as §1
TAP-HOG1 protein complex was purified using the ProtA and CBP tags as described before in Forler et al. (supra). For ProtA pulldown, IgG Sepharose beads (Amersham Biosciences #17-0969-01) and for CBP pulldown Calmodulin affinity resin (Stratagene #214303-52) were used. The purified protein was subjected to SDS-PAGE and blotted to PVDF membranes for Western blot analysis using standard protocols. […]

[5] = molecular target: T3, recombinant AHP1 with six-His and thioredoxin tags, expressed in E. coli (Arabidopsis thaliana, UniProt Q9ZNV9 1-154); test: ITC; purified AHP1 injected into a cell containing purified TAP-HOG1
T3 construct: This is the form used in ITC; also called purified AHP1; Arabidopsis histidine phosphotransfer protein 1; not shown: thioredoxin tag and six-His tag from the vector PET32EK/LIC (Novagen)
T3 sequence (looked up): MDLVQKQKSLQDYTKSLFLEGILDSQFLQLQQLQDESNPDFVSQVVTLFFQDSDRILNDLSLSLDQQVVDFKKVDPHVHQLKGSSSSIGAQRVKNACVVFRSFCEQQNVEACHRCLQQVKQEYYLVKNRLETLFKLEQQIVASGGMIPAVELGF
Procedure: C) Purification of TAP-HOG1 complex. […] D) SDS-polyacrylamide gel electrophoresis of recombinant AHP1 purification. AHP1 was expressed with six-His and thioredoxin-tags in *E. coli*. Lane 1 has total cell lysate and purified AHP1 with the tags is in lane 2. E) TAP-HOG1 and AHP1 interaction was performed with ITC.
as §1, with “µM” for “μM”

[6] = tested on: S-adenosyl homocysteine hydrolase (SAHH) activity; test: SAHH spectrophotometric assay; format: biochemical, Arabidopsis thaliana; settings: purified protein
[7] = ITC, control molecules, purified TAP-HOG1, read-out: KD (dissociation constant)

## Nc1ncnc2c1ncn2C[C@H](O)CO [(S)-9-(2,3-dihydroxypropyl)adenine]
[1]
  decrease of SAM:SAH ratio at which genome hypomethylation occurred: 300 folds

## NC(=O)c1ccc[n+]([C@@H]2O[C@H](COP(=O)([O-])OP(=O)(O)OC[C@H]3O[C@@H](n4cnc5c(N)ncnc54)[C@H](O)[C@@H]3O)[C@@H](O)[C@H]2O)c1 [NAD+]
Purified TAP-HOG1 [2]; [7]
  Kd: 39500 nM

## Nc1ncnc2nc[nH]c12 [adenine]
Purified TAP-HOG1 [2]; [7]
  Kd: 2100 nM

## c1coc(CNc2ncnc3[nH]cnc23)c1 [kinetin]
[3]
  phenotype compared with control AS lines: did not show any significant difference in phenotype

## O=C(Nc1ccccc1)Nc1cnns1 [thidiazuron]
Purified TAP-HOG1 [2]; ITC, performed as with zeatin
  binding to HOG1: does not bind

## C/C(=C\CNc1ncnc2[nH]cnc12)CO [zeatin]
Purified TAP-HOG1 [2]
  Kd: 16.9 to 20.6 nM
[3]
  phenotype compared with control AS lines: did not show any significant difference in phenotype

B1: AHP1: recombinant Arabidopsis histidine phosphotransfer protein 1 with six-HIS and thioredoxin tags, expressed in E. coli (protein)
chain: MDLVQKQKSLQDYTKSLFLEGILDSQFLQLQQLQDESNPDFVSQVVTLFFQDSDRILNDLSLSLDQQVVDFKKVDPHVHQLKGSSSSIGAQRVKNACVVFRSFCEQQNVEACHRCLQQVKQEYYLVKNRLETLFKLEQQIVASGGMIPAVELGF
modifications: left off: large carriers
notes: recombinant Arabidopsis histidine phosphotransfer protein 1 with six-HIS and thioredoxin tags, expressed in E. coli
Purified TAP-HOG1 [4]
  Kd: 23.8 nM

B2: purified TAP-HOG1 protein (HOG1 retaining the CBP portion of the TAP tag, 60 kDa) (receptor, not shown: small tags and cut ends)
chain: MALIVEKTSGGREYKVKDMSQADFGRLELELAEVEMPGLMACRTEFGPAQPFKGARITGSLHMTIQTAVLIETLTALGAEVRWCSCNIFSTQDHAAAAIARDSAAVFAWKGETLQEYWWCTERALDWGPGGGPDLIVDDGGDATLLIHEGVKAEEIFEKTGQVPDPTSTDNPEFQIVLSIIKEGLQVDPKKYHKMKGRLVGVSEETTTGVKRLYQMQESGALLFPAINVNDSVTKSKFDNLYGCRHSLPDGLMRATDVMIAGKVAVICGYGDVGKGCAAAMKTAGARVIVTEIDPICALQAMMEGLQVLTLEDVVSEADIFVTTTGNKDIIMVDHMRKMKNNAIVCNIGHFDNEIDMQGLETFPGVKRITIKPQTDRWVFPDTKSGIIVLAEGRLMNLGCATGHPSFVMSCSFTNQVIAQLELWNEKSSGKYEKKVYVLPKHLDEKVAALHLGKLGAKLTKLTKDQSDYVSIPIEGPYKPPHYRY
notes: Purified from transgenic Arabidopsis thaliana carrying 35S:TAP-HOG1, using the Prot A and CBP tags; After purification it keeps only the CBP portion of the tag (60 kDa; HOG1 alone would be 56 kDa); also called Homology-dependent gene silencing 1
[5]
  Kd: 23.8 nM

B3: TAP-HOG1: TAP-tagged HOG1 polypeptide (SEQ ID NO: 1) purified from transgenic Arabidopsis thaliana (protein, listed as Arabidopsis thaliana)
chain: MALIVEKTSGGREYKVKDMSQADFGRLELELAEVEMPGLMACRTEFGPAQPFKGARITGSLHMTIQTAVLIETLTALGAEVRWCSCNIFSTQDHAAAAIARDSAAVFAWKGETLQEYWWCTERALDWGPGGGPDLIVDDGGDATLLIHEGVKAEEIFEKTGQVPDPTSTDNPEFQIVLSIIKEGLQVDPKKYHKMKGRLVGVSEETTTGVKRLYQMQESGALLFPAINVNDSVTKSKFDNLYGCRHSLPDGLMRATDVMIAGKVAVICGYGDVGKGCAAAMKTAGARVIVTEIDPICALQAMMEGLQVLTLEDVVSEADIFVTTTGNKDIIMVDHMRKMKNNAIVCNIGHFDNEIDMQGLETFPGVKRITIKPQTDRWVFPDTKSGIIVLAEGRLMNLGCATGHPSFVMSCSFTNQVIAQLELWNEKSSGKYEKKVYVLPKHLDEKVAALHLGKLGAKLTKLTKDQSDYVSIPIEGPYKPPHYRY
modifications: TAP tag; HOG1 Arabidopsis thaliana
[6]
  SAHH enzyme activity: lacks measurable SAHH activity; also recorded: lacks SAHH enzyme activity
